Assay results as given in patent US12071453B2, “Neuroactive steroids, compositions, and uses thereof” (Sage Therapeutics, Inc., priority 2013, dated 2024).

Columns and labels:
[1] = molecular target: [35S]-TBPS binding in rat brain cortical membranes; assay: Steroid inhibition of [35S]-TBPS binding, rat brain cortical membranes; conditions: 3 nM [35S]-TBPS, in the presence of 5 μM GABA, read-out: 35S-TBPS Radioligand Displacement (IC50)
Experimental: TBPS binding assays using rat brain cortical membranes in the presence of 5 μM GABA has been described (Gee et al, J. Pharmacol. Exp. Ther. 1987, 241, 346-353; Hawkinson et al, Mol. Pharmacol. 1994, 46, 977-985; Lewin, A. H et al., Mol. Pharmacol. 1989, 35, 189-194).
Briefly, cortices are rapidly removed following decapitation of carbon dioxide-anesthetized Sprague-Dawley rats (200-250 g). The cortices are homogenized in 10 volumes of ice-cold 0.32 M sucrose using a glass/teflon homogenizer and centrifuged at 1500×g for 10 min at 4° C. The resultant supernatants are centrifuged at 10,000×g for 20 min at 4° C. to obtain the P2 pellets. The P2 pellets are resuspended in 200 mM NaCl/50 mM Na—K phosphate pH 7.4 buffer and centrifuged at 10,000×g for 10 min at 4° C. This washing procedure is repeated twice and the pellets are resuspended in 10 volumes of buffer. Aliquots (100 μL) of the membrane suspensions are incubated with 3 nM [^35S]-TBPS and 5 μL aliquots of test drug dissolved in dimethyl sulfoxide (DMSO) (final 0.5%) in the presence of 5 μM GABA. The incubation is brought to a final volume of 1.0 mL with buffer. Nonspecific binding is determined in the presence of 2 μM unlabeled TBPS and ranged from 15 to 25%. Following a 90 min incubation at room temp, the assays are terminated by filtration through glass fiber filters (Schleicher and Schuell No. 32) using a cell harvester (Brandel) and rinsed three times with ice-cold buffer. Filter bound radioactivity is measured by liquid scintillation spectrometry. Non-linear curve fitting of the overall data for each drug averaged for each concentration is done using Prism (GraphPad). […] The concentration of test compound producing 50% inhibition (IC50) of specific binding and the maximal extent of inhibition (Imax) are determined for the individual experiments with the same model used for the overall data and then the mean±SEM.s of the individual experiments are calculated.
Various compounds are or can be screened to determine their potential as modulators of [^35S]-TBPS binding in vitro. These assays are or can be performed in accordance with the above discussed procedures.

[2] = molecular target: T1, GABAA receptors composed of the α1β2γ2 subunits (GABRA1/GABRB2/GABRG2) (Homo sapiens, UniProt P14867+P47870); assay: Two Electrode Voltage Clamp (TEVC), GABA receptor potentiation in Xenopus laevis oocytes, α1β2γ2; assay type: cell-based; conditions: 10 μM compound, 10 μM GABA, read-out: GABA (α1β2γ2) % efficacy at 10 μM
T1 construct: expressed in transfected cells; host or cells: Xenopus laevis oocytes, injected (ratio 1:1:1)
T1 sequence (P14867 28-456): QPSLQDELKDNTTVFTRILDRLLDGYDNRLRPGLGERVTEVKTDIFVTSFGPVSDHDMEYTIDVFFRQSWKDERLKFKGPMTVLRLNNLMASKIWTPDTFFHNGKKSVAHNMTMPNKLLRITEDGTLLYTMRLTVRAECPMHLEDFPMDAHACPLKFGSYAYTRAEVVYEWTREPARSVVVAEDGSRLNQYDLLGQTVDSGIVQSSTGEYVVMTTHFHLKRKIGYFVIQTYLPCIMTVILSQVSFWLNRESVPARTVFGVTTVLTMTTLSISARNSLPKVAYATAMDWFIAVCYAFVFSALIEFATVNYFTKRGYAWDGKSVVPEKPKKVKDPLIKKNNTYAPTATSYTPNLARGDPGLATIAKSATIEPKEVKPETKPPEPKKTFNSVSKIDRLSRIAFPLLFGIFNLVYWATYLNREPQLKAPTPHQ
T1 sequence (P47870 26-512): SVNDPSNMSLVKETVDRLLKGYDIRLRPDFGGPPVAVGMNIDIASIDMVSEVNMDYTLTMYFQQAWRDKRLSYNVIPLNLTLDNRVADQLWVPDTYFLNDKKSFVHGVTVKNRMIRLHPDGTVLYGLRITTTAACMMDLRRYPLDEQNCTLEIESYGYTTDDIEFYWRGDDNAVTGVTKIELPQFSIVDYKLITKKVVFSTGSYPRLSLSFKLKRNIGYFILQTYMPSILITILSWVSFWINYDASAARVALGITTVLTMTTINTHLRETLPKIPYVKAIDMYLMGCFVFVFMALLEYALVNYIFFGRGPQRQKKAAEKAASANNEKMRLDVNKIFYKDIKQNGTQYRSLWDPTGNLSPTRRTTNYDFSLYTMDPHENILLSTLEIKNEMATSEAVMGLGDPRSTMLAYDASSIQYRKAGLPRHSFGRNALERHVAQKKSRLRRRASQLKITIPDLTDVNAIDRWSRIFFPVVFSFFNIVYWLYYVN
T1 sequence (P18507 40-475 partner): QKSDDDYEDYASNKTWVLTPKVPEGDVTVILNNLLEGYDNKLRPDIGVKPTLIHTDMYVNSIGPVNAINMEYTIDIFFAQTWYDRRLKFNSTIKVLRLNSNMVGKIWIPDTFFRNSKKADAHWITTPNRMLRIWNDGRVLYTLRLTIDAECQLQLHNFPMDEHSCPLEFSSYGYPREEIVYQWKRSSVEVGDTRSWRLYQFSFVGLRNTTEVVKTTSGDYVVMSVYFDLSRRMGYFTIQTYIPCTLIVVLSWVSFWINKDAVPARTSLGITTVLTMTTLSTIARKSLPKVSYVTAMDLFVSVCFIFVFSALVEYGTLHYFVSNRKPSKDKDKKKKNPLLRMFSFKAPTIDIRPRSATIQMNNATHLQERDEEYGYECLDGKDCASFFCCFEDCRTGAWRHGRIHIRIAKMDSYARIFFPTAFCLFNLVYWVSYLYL
Experimental: The Two Electrode Voltage Clamp (TEVC) technique was used to investigate the effects of compounds at a concentration of 10 μM on GABAA receptors composed of the α1β2γ2 or α4β3δ subunits expressed in oocytes from the Xenopus laevis. GABA-evoked currents were recorded from oocytes that expressed the GABA receptors and the modulatory effects of the test items on these currents were investigated.
Ovaries were harvested from Xenopus laevis females that had been deeply anesthetized by cooling at 4° C. and immersion in Tricaine methanesulfonate (MS-222 at a concentration of 150 mg/L) in sodium bicarbonate (300 mg/L). Once anesthetized the animal was decapitated and pithed following the rules of animal rights from the Geneva canton. A small piece of ovary was isolated for immediate preparation while the remaining part was placed at 4° C. in a sterile Barth solution containing in mM NaCl 88, KCl 1, NaHCO3 2.4, HEPES 10, MgSO4·7H2O 0.82, Ca(NO3)2·4H2O 0.33, CaCl2·6H2O 0.41, at pH 7.4, and supplemented with 20 μg/ml of kanamycin, 100 unit/ml penicillin and 100 μg/ml streptomycin. All recordings were performed at 18° C. and cells were super-fused with medium containing in mM: NaCl 82.5, KCl 2.5, HEPES 5, CaCl2·2H2O, ·6H2O 1, pH 7.4.
Plasmids containing the RNAs of the human GABRA1/GABRB2/GABRG2 and GABRA4/GABRB3/GABRD genes were injected into oocytes using a proprietary automated injection device (Hogg el al., J. Neurosci. Methods, (2008) 169: 65-75). These genes encode for the α1β2γ2 and α4β3δ GABAA subunits respectively. Receptor expression was assessed using electrophysiology at least two days later. The ratio of RNA injection for α1β2γ2 was 1:1:1 and for α4β3δ was 5:1:5. Electrophysiological recordings were made using an automated process equipped with standard TEVC and data were captured and analyzed using a proprietary data acquisition and analysis software running under Matlab (Mathworks Inc.). The membrane potential of the oocytes was maintained at −80 mV throughout the experiments. To explore the effects of proprietary compounds, currents were evoked by applying 10 μM (α1β2γ2) or 3 μM (α4β3δ) GABA for 30 s. These concentrations approximated the EC50 concentration of GABA at each receptor subtype. Oocytes were then re-exposed to GABA again for 30 s. 15 s after beginning the GABA application, test article was co-applied at a concentration of 10 μM for 15 s. Potentiation of the peak current was assessed. Data was filtered at 10 Hz, captured at 100 Hz and analyzed using proprietary data acquisition and analysis software running under Matlab (Mathworks Inc.). For statistical analysis values were computed either with Excel (Microsoft) or Matlab (mathworks Inc.). To obtain mean measurements with standard deviations, all experiments were carried out using at least three cells.

Structure (SMILES) | IC50 [1] [nM] | Emax at 10 µM [2] [%]
COC[C@]12CC[C@@](C)(O)C[C@@H]1CC[C@H]1[C@@H]3CC[C@H](C(=O)Cn4nnc5c(F)cc(F)cc54)[C@@]3(C)CC[C@@H]12 [Compound 56] | 50 to 100 | 50 to 500
COC[C@]12CC[C@@](C)(O)C[C@H]1CC[C@H]1[C@@H]3CC[C@H](C(=O)Cn4nnc5ccc(F)cc54)[C@@]3(C)CC[C@@H]12 [Compound 74] | < 10 | 500 to 1000
COC[C@]12CC[C@@](C)(O)C[C@@H]1CC[C@H]1[C@@H]3CC[C@H](C(=O)Cn4nnc(C)n4)[C@@]3(C)CC[C@@H]12 [Compound 17] | > 500 | 1000 to 1500
COC[C@]12CC[C@@](C)(O)C[C@@H]1CC[C@H]1[C@@H]3CC[C@H](C(=O)Cn4nc5cc(OC)cc(OC)c5n4)[C@@]3(C)CC[C@@H]12 [Compound 65] | < 10 | 500 to 1000
COC[C@]12CC[C@@](C)(O)C[C@@H]1CC[C@H]1[C@@H]3CC[C@H](C(=O)Cn4ncc5ccc(Cl)cc54)[C@@]3(C)CC[C@@H]12 [Compound 112] | 50 to 100 | 50 to 500
COC[C@]12CC[C@@](C)(O)C[C@H]1CC[C@H]1[C@@H]3CC[C@H](C(=O)Cn4nnc5cccc(F)c54)[C@@]3(C)CC[C@@H]12 [Compound 81] | 10 to 50 | 500 to 1000
COC[C@]12CC[C@@](C)(O)C[C@H]1CC[C@H]1[C@@H]3CC[C@H](C(=O)Cn4cnc5ccccc54)[C@@]3(C)CC[C@@H]12 [Compound 80] | 10 to 50 | 500 to 1000
COC[C@]12CC[C@@](C)(O)C[C@@H]1CC[C@H]1[C@@H]3CC[C@H](C(=O)Cn4cc(S(C)(=O)=O)cn4)[C@@]3(C)CC[C@@H]12 [Compound 24] | 100 to 500 | 500 to 1000
COC[C@]12CC[C@@](C)(O)C[C@@H]1CC[C@H]1[C@@H]3CC[C@H](C(=O)Cn4ncc5cc(F)ccc54)[C@@]3(C)CC[C@@H]12 [Compound 107] | > 500 | 500 to 1000
COC[C@]12CC[C@@](C)(O)C[C@@H]1CC[C@H]1[C@@H]3CC[C@H](C(=O)Cn4nnc5ccccc54)[C@@]3(C)CC[C@@H]12 [Compound 39] | 10 to 50 | 500 to 1000
COC[C@]12CC[C@@](C)(O)C[C@@H]1CC[C@H]1[C@@H]3CC[C@H](C(=O)Cn4nc5cc(Cl)cnc5n4)[C@@]3(C)CC[C@@H]12 [Compound 99] | 10 to 50 | 1000 to 1500
COC[C@]12CC[C@@](C)(O)C[C@@H]1CC[C@H]1[C@@H]3CC[C@H](C(=O)Cn4ncc5ccc(F)cc54)[C@@]3(C)CC[C@@H]12 [Compound 110] | 50 to 100 | 500 to 1000
COC[C@]12CC[C@@](C)(O)C[C@@H]1CC[C@H]1[C@@H]3CC[C@H](C(=O)Cn4cnc(C)c4)[C@@]3(C)CC[C@@H]12 [Compound 23] | 100 to 500 | 500 to 1000
COC[C@]12CC[C@@](C)(O)C[C@@H]1CC[C@H]1[C@@H]3CC[C@H](C(=O)Cn4cnc5ccccc54)[C@@]3(C)CC[C@@H]12 [Compound 46] | 50 to 100 | 1000 to 1500
CCOC[C@]12CC[C@@](C)(O)C[C@@H]1CC[C@H]1[C@@H]3CC[C@H](C(=O)Cn4nnc(C)n4)[C@@]3(C)CC[C@@H]12 [Compound 25] | 10 to 50 | 500 to 1000
COC[C@]12CC[C@@](C)(O)C[C@@H]1CC[C@H]1[C@@H]3CC[C@H](C(=O)Cn4nnc5c(Cl)cccc54)[C@@]3(C)CC[C@@H]12 [Compound 60] | 10 to 50 | 50 to 500
COC[C@]12CC[C@@](C)(O)C[C@H]1CC[C@H]1[C@@H]3CC[C@H](C(=O)Cn4nnc5cc(F)ccc54)[C@@]3(C)CC[C@@H]12 [Compound 75] | 10 to 50 | 500 to 1000
COC[C@]12CC[C@@](C)(O)C[C@H]1CC[C@H]1[C@@H]3CC[C@H](C(=O)Cn4nc5cccc(F)c5n4)[C@@]3(C)CC[C@@H]12 [Compound 83] | < 10 | 1000 to 1500
COC[C@]12CC[C@@](C)(O)C[C@H]1CC[C@H]1[C@@H]3CC[C@H](C(=O)Cn4nnc5ccc(F)c(F)c54)[C@@]3(C)CC[C@@H]12 [Compound 77] | < 10 | 1000 to 1500
COC[C@]12CC[C@@](C)(O)C[C@H]1CC[C@H]1[C@@H]3CC[C@H](C(=O)Cn4nccn4)[C@@]3(C)CC[C@@H]12 [Compound 31] | 10 to 50 | 500 to 1000
COC[C@]12CC[C@@](C)(O)C[C@@H]1CC[C@H]1[C@@H]3CC[C@H](C(=O)Cn4nnc5c(OC)c(OC)ccc54)[C@@]3(C)CC[C@@H]12 [Compound 63] | 10 to 50 | 500 to 1000
COC[C@]12CC[C@@](C)(O)C[C@@H]1CC[C@H]1[C@@H]3CC[C@H](C(=O)Cn4nc5cc(F)c(F)cc5n4)[C@@]3(C)CC[C@@H]12 [Compound 97] | 10 to 50 | 500 to 1000
COC[C@]12CC[C@@](C)(O)C[C@@H]1CC[C@H]1[C@@H]3CC[C@H](C(=O)Cn4nnc5c(F)c(F)ccc54)[C@@]3(C)CC[C@@H]12 [Compound 53] | 50 to 100 | 50 to 500
COC[C@]12CC[C@@](C)(O)C[C@@H]1CC[C@H]1[C@@H]3CC[C@H](C(=O)Cn4nc5cccc(F)c5n4)[C@@]3(C)CC[C@@H]12 [Compound 49] | 10 to 50 | 500 to 1000
COC[C@]12CC[C@@](C)(O)C[C@@H]1CC[C@H]1[C@@H]3CC[C@H](C(=O)Cn4nnc5cc(F)ccc54)[C@@]3(C)CC[C@@H]12 [Compound 42] | 10 to 50 | 500 to 1000
COC[C@]12CC[C@@](C)(O)C[C@@H]1CC[C@H]1[C@@H]3CC[C@H](C(=O)Cn4cc5ccncc5n4)[C@@]3(C)CC[C@@H]12 [Compound 44] | 10 to 50 | 1000 to 1500
COC[C@]12CC[C@@](C)(O)C[C@@H]1CC[C@H]1[C@@H]3CC[C@H](C(=O)Cn4cc5ccc(F)cc5n4)[C@@]3(C)CC[C@@H]12 [Compound 111] | 50 to 100 | 500 to 1000
COC[C@]12CC[C@@](C)(O)C[C@@H]1CC[C@H]1[C@@H]3CC[C@H](C(=O)Cn4nc5ccc(OC)cc5n4)[C@@]3(C)CC[C@@H]12 [Compound 50] | 10 to 50 | 500 to 1000
COC[C@]12CC[C@@](C)(O)C[C@@H]1CC[C@H]1[C@@H]3CC[C@H](C(=O)Cn4cc5nccnc5n4)[C@@]3(C)CC[C@@H]12 [Compound 103] | > 500 | 1000 to 1500
